How the values were obtained:
[1] = biological target: Lutropin-choriogonadotropic hormone receptor (Rattus norvegicus, UniProt P16235); test: Antagonist activity at rat luteinizing hormone receptor expressed in rat ovary granulosa GLHR15 cell suspension assessed as reduction in agonist-induced cAMP production preincubated for 30 mins followed by agonist solution addition after 30 mins by cell based TR-FRET assay; assay type: functional
[2] = Clearance in human liver microsomes at 1 uM measured after 2 to 60 mins in presence of glucose-6-phosphate by LC-MS/MS analysis; assay type: ADME, Microsome
[3] = Chemical stability of the compound at pH 1 to 10 measured after 1 to 24 hrs by HPLC-UV method; assay type: physicochemical; details: buffer
[4] = Apparent permeability across basolateral to apical side in human Caco2 cells at 2 uM after 2 hrs by LC-MS/MS analysis; assay type: ADME, cell-based; details: Caco-2
[5] = Clearance in Han Wistar rat hepatocytes at 1 uM measured after 2 to 90 mins by LC-MS/MS analysis; assay type: ADME, cell-based, Hepatocyte
Cytochrome P450 1A2 = Cytochrome P450 1A2 (Homo sapiens, UniProt P05177); test: Inhibition of CYP1A2 in human liver microsomes using phenacetin as substrate by LC-MS/MS analysis; assay type: ADME
Cytochrome P450 1A2, sequence (P05177 whole entry): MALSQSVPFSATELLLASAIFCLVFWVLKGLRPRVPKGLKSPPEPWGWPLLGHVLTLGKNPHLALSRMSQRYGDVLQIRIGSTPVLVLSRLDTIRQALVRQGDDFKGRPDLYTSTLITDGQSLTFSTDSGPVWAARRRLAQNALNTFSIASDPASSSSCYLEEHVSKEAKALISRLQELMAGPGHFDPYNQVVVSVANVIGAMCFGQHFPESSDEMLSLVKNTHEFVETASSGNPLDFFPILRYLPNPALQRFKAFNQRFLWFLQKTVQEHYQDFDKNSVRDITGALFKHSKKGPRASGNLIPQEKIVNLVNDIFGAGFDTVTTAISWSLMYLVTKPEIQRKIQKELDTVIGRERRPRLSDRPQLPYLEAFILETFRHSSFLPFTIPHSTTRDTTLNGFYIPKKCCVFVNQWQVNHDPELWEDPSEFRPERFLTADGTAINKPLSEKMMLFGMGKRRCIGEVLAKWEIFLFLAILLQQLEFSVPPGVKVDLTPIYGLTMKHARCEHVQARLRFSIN

[6] = Volume of distribution at steady state in Wistar rat at 0.5 mg/kg, iv after 2 to 72 hrs by LC-MS/MS analysis; assay type: ADME, organism-based; details: in vivo, read-out: Vdss
[7] = biological target: T1, Adenosine receptor A3 (Homo sapiens) (UniProt P0DMS8); test: Antagonist activity at human A3 receptor expressed in CHO-K1 cells at 10 uM after 20 mins by HTRF assay relative to control; assay type: cell-based; design: scale not given: the % may be the effect or the level left
T1 sequence (whole entry): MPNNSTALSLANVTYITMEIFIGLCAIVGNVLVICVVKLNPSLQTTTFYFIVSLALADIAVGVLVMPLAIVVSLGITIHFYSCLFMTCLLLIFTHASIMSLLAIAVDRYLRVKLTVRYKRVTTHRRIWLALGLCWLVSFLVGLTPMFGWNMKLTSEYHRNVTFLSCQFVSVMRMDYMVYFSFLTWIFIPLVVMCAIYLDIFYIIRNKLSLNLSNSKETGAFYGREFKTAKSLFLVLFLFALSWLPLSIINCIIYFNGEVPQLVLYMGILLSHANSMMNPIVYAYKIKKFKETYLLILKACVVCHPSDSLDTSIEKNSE

[8] = biological target: D(1A) dopamine receptor (Homo sapiens) (UniProt P21728); test: Antagonist activity at human D1 receptor expressed in CHO-K1 cells at 10 uM after 30 mins HTRF assay relative to control; assay type: cell-based; design: scale not given: the % may be the effect or the level left
D(1A) dopamine receptor (Homo sapiens), sequence (P21728 whole entry): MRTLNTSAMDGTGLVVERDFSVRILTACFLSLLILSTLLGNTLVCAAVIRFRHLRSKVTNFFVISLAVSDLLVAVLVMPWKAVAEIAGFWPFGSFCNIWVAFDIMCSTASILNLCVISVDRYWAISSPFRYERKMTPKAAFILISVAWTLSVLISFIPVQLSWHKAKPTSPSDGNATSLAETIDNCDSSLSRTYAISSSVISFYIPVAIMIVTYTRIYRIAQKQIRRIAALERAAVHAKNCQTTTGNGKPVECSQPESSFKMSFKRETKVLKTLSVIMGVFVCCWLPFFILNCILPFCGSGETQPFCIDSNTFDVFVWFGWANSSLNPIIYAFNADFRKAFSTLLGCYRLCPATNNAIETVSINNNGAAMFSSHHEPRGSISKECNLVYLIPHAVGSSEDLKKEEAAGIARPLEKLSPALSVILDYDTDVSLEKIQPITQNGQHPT

[9] = biological target: D(2) dopamine receptor (Homo sapiens) (UniProt P14416); test: Antagonist activity at human Dopamine D2L receptor expressed in CHO-K1 cells at 10 uM by Fluorimetric analysis relative to control; assay type: cell-based; design: scale not given: the % may be the effect or the level left
D(2) dopamine receptor (Homo sapiens), sequence (P14416 whole entry): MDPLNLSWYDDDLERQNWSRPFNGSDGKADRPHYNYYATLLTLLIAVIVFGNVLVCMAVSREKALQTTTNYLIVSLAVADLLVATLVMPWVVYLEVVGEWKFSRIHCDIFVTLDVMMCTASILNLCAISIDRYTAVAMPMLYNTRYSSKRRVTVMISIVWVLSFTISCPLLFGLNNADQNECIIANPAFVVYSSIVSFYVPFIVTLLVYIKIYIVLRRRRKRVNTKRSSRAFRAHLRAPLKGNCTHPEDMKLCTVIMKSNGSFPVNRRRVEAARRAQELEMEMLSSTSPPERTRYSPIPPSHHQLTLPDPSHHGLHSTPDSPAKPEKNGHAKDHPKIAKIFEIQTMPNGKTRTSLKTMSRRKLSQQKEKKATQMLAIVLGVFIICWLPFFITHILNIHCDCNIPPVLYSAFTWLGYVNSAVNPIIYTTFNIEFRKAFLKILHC

[10] = biological target: Histamine H2 receptor (Homo sapiens) (UniProt P25021); test: Antagonist activity at human histamine H2 receptor expressed in CHO-K1 cells at 10 uM after 30 mins by HTRF assay relative to control; assay type: cell-based; design: scale not given: the % may be the effect or the level left
Histamine H2 receptor (Homo sapiens), sequence (P25021 whole entry): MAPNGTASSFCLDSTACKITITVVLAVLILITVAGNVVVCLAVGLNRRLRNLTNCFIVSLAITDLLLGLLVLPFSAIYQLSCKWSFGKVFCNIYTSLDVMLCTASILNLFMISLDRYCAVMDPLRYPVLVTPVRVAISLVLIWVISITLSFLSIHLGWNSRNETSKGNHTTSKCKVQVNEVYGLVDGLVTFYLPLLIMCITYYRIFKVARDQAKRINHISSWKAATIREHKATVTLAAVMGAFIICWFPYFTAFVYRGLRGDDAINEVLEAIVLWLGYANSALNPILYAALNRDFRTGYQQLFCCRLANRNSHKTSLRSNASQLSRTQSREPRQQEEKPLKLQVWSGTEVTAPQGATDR

[11] = biological target: Motilin receptor (Homo sapiens) (UniProt O43193); test: Antagonist activity at human Motilin receptor expressed in CHO-K1 cells at 10 uM by fluorimetric method relative to control; assay type: cell-based; design: scale not given: the % may be the effect or the level left
Motilin receptor (Homo sapiens), sequence (O43193 whole entry): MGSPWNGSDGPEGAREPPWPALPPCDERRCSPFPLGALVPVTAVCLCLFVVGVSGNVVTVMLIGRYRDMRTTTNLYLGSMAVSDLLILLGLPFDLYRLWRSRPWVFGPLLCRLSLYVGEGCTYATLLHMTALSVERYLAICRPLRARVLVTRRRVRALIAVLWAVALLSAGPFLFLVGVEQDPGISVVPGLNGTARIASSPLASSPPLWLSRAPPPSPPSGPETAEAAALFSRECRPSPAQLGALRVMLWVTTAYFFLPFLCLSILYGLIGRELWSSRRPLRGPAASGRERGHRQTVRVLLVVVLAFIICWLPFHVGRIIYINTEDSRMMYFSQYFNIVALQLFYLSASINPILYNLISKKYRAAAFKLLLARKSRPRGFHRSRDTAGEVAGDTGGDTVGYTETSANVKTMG

[12] = biological target: Kappa-type opioid receptor (Homo sapiens) (UniProt P41145); test: Antagonist activity at human kappa opioid receptor at 10 uM by Spectrophotometric method relative to control; design: scale not given: the % may be the effect or the level left
Kappa-type opioid receptor (Homo sapiens), sequence (P41145 whole entry): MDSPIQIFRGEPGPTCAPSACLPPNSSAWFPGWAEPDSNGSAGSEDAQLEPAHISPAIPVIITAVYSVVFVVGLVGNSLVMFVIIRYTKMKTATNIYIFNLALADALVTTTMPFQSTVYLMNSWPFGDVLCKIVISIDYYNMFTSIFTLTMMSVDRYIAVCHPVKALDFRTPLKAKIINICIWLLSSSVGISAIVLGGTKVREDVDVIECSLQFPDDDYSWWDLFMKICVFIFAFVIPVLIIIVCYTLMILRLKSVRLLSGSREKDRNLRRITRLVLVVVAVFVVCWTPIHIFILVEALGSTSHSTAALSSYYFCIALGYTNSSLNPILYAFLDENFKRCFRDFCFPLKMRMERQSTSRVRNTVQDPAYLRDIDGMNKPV

[13] = biological target: T2, Prostaglandin E2 receptor EP3 subtype (Homo sapiens) (UniProt P43115); test: Agonist activity at human EP3 receptor expressed in […] cells at 10 uM by spectrophotometric method relative to control; assay type: cell-based
T2 sequence (whole entry): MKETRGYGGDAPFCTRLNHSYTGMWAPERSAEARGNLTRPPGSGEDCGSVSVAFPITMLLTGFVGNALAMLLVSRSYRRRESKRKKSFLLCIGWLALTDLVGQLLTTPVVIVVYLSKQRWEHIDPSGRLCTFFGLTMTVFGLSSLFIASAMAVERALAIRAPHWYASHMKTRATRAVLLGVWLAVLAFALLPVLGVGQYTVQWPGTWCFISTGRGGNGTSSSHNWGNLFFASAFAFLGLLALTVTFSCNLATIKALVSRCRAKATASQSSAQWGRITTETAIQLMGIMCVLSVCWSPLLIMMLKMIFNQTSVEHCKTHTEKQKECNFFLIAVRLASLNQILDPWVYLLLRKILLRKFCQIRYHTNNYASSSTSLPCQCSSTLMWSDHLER

[14] = biological target: T2, Prostaglandin E2 receptor EP3 subtype (Homo sapiens); test: Antagonist activity at human EP3 receptor expressed in […] cells at 10 uM by spectrophotometric method relative to control; assay type: cell-based; design: scale not given: the % may be the effect or the level left
[15] = biological target: P2Y purinoceptor 2 (Homo sapiens) (UniProt P41231); test: Agonist activity at human P2Y2 receptor expressed in human 1321N1 cells at 10 uM by fluorimetric method relative to control; assay type: cell-based
P2Y purinoceptor 2 (Homo sapiens), sequence (P41231 whole entry): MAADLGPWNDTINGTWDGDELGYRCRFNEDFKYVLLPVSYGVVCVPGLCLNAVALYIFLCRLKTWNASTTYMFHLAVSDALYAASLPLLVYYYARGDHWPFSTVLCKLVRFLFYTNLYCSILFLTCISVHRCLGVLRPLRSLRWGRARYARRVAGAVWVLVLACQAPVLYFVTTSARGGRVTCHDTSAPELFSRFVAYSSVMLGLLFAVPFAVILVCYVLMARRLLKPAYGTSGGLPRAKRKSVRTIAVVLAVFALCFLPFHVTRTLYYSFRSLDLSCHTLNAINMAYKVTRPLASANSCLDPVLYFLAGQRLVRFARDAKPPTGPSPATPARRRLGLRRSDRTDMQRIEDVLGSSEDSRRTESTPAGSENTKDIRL

[16] = biological target: T3, 5-hydroxytryptamine receptor 1A (Homo sapiens) (UniProt P08908); test: Antagonist activity at human 5-HT1A receptor expressed in mouse BA/F3 cells at 10 uM by fluorimetric method relative to control; assay type: cell-based; design: scale not given: the % may be the effect or the level left
T3 sequence (whole entry): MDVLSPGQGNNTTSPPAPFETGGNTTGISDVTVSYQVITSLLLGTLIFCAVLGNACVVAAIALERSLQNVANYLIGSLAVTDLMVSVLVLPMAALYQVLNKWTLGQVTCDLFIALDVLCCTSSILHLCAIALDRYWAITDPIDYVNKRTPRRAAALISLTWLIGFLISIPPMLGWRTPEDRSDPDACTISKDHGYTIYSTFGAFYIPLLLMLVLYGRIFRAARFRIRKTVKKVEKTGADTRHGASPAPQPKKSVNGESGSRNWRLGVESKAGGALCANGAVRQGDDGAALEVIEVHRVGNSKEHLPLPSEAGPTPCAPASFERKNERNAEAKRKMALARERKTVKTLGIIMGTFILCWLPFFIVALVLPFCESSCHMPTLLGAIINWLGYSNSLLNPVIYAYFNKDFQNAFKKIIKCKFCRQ

[17] = biological target: Somatostatin receptor type 4 (Homo sapiens) (UniProt P31391); test: Agonist activity at human sst4 expressed in CHO-K1 cells at 10 uM after 10 mins by HTRF assay relative to control; assay type: cell-based
Somatostatin receptor type 4 (Homo sapiens), sequence (P31391 whole entry): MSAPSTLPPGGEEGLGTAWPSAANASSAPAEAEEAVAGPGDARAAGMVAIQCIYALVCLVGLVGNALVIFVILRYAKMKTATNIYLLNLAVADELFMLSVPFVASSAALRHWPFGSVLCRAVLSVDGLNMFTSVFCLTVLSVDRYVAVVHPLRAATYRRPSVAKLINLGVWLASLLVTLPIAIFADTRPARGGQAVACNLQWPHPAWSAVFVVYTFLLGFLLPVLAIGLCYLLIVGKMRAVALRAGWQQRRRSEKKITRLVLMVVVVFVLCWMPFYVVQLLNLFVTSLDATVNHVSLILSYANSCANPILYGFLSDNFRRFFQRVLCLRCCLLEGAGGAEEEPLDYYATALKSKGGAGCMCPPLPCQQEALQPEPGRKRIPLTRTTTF

[18] = Toxicity in female rat assessed as reduction in body weight; details: in vivo

Lutropin-choriogonadotropic hormone receptor, sequence (P16235 whole entry): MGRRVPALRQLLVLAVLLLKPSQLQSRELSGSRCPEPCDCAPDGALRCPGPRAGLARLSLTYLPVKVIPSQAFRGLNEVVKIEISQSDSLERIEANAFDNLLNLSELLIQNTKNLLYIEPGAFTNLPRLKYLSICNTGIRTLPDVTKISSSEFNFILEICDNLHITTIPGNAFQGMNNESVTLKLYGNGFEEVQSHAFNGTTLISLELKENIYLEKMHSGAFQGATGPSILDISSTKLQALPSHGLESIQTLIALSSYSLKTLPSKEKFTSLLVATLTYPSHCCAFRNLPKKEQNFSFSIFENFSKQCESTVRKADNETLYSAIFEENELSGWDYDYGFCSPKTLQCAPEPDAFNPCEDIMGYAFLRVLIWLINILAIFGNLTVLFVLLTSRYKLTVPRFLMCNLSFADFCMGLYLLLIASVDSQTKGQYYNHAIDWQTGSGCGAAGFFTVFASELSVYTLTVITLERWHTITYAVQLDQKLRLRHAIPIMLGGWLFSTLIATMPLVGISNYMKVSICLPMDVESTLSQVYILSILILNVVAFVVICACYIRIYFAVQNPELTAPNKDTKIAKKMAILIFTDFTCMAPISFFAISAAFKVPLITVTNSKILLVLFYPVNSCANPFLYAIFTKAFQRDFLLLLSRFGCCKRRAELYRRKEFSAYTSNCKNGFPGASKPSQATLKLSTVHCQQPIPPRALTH

Row | Structure (SMILES) | IC50 [1] | CLhep predicted at 1 µM [2] | Stability [3] | Papp B→A at 2 h, 2 µM [4] | CLH [5] | IC50 (Cytochrome P450 1A2) | Vd [6] | Activity [7] | Activity [8] | Activity [9] | Activity [10] | Activity [11] | Activity [12] | Activity [13] | Activity [14] | Activity [15] | Activity [16] | Activity [17] | Activity [18]
1 | O=C(Nc1ccc(Oc2ccc(F)cc2)cc1)N1CCc2ncccc2[C@@H]1c1ccc(Cl)cc1 | 23 nM | 3.33 mL/min/kg | Stable | 2 ×10⁻⁶ cm/s | 18.3 mL/min/kg | > 20000 nM | 1.8 L/kg | < 70% | < 70% | < 70% | < 70% | < 70% | < 70% | < 70% | < 70% | < 70% | < 70% | < 70% | Non-Toxic
2 | O=C(Nc1cnc(Oc2ccc(F)cc2)nc1)N1CCc2ncccc2[C@@H]1c1ccc(F)cc1 [BAY-899] | 46 nM | 1.67 mL/min/kg | Stable | 9.5 ×10⁻⁶ cm/s | 21.7 mL/min/kg | > 20000 nM | 16 L/kg | < 70% | < 70% | < 70% | < 70% | < 70% | < 70% | < 70% | < 70% | < 70% | < 70% | < 70% | Non-Toxic

From ChEMBL document CHEMBL4321836, “Discovery of BAY-298 and BAY-899: Tetrahydro-1,6-naphthyridine-Based, Potent, and Selective Antagonists of the Luteinizing Hormone Receptor Which Reduce Sex Hormone Levels in Vivo” (J Med Chem, 2019)
